# Source: US20040126418A1, “Transdermal administration of MENT” (The Population Council, Inc., priority 1997, published 2004)
# Experiments:
# [1] = In vitro permeation (flux) across rat skin, modified Franz diffusion cell; type: in vitro ADME, Sprague-Dawley rats
# Excerpt: The flux of a specific formulation can be determined using a modified Franz diffusion cell as discussed herein. First, skin from female Sprague-Dawley rats (200-250 g body weight) can be obtained. The rats are anesthetized, the abdominal skin shaved and then excised. Excess fat and connective tissues are removed. The skin (1.77 cm^2) is sandwiched between the two chambers of a modified Franz diffusion cell, with the surface of the skin facing the upper (donor) chamber of the cell. A measured amount of the androgen containing formulation is applied to the surface of the skin, so that the skin is completely covered. The lower (recipient) chamber is filled with sterile saline, which completely bathes the lower surface of the rat skin. The contents of the recipient chamber are constantly stirred with a magnetic stirrer. Aliquots of the saline in the recipient chamber is removed at predetermined intervals and analyzed by HPLC. The saline remains in constant contact with the skin at all times. The Franz cell is maintained at 37° C. for the duration of each test.
# An in vitro modified Franz cell system as described in Example 2 was used to study the permeability of testosterone and MENT from various transdermal dosage forms through rat skin. Various topical cream, gel and patch formulations were tested. The concentration of testosterone and MENT in all of the gels and creams described herein was 2 mg per gram of gel or cream. The following formulations were tested: […]
# The gel (nearly identical to formulation T from Example 1) was produced by taking all of the aqueous components and mixing them under medium agitation in one vessel and all the organic, non-aqueous materials and mixing them in a separate vessel. The organic mixture and aqueous mixture were then mixed together using medium agitation provided by a paddle mixer. Of course, a lightning mixer or magnetic stirrer could also be used. The viscosity profile of the gel produced is illustrated in FIG. 20. Steroid permeation (in vitro) across Rat Skin for each of these gel formulations were tested using a two chambers of a modified Franz diffusion cell as previously described. Skin from female Sprague-Dawley rats (200-250 g body weight) were used in these studies. The rats were anesthetized, the abdominal skin was shaved and excised. Excess fat and connective tissues were removed. The skin (1.77 cm^2) was sandwiched between the two chambers of a modified Franz diffusion cell, with the surface of the skin facing the upper (donor) chamber of the cell. Approximately 0.5 gm of gel (1 mg steroid) was applied to the surface of the skin, so that the skin was completely covered with the gel. The lower (recipient) chamber was filled with 11.4 ml of sterile saline, which completely bathed the lower surface of the rat skin. The contents of the recipient chamber was constantly stirred with a magnetic stirrer during the experiment. Aliquots of 200 μL of the saline in the recipient chamber were removed at intervals of 1 h for 4 h; and analyzed by HPLC for either MENT on T. The saline remained in constant contact with the skin at all times. The Franz cell was maintained at 37° C. for the duration of the test.
# [2] = Bioavailability of transdermal MENT gel formulations in rabbits (serum MENT by radioimmunoassay); type: in vivo, New Zealand white rabbits
# Protocol: The bioavailability of three transdermal MENT gel formulations (2 mg MENT/g gel) (formulations O, F and T) were studied in rabbits. Three New Zealand white rabbits weighing 3.5-4.5 kg were used in each group. To each animal, 0.2 g gel (0.4 mg MENT) or 0.4 g gel (0.8 mg MENT) was applied to 5×5 cm or 10×10 cm area of shaved skin for three consecutive days. On days 1 and 3, blood samples were collected at 0, 1, 2, 4 and 8 hours after application of the gel. Serum MENT levels were determined by radioimmunoassay.
smiles,measurement,setting,value
"C[C@@H]1CC2=CC(=O)CC[C@@H]2[C@H]2CC[C@]3(C)[C@@H](O)CC[C@H]3[C@@H]21 [MENT, 7α-methyl-19-nortestosterone]",Permeation (concentrations and flux rates) through rat skin compared with testosterone,"[1]; all other formulations (1 patch, 2 creams and 7 gels), FIGS. 3 to 7 and 9 to 13",considerably higher concentrations and flux rates than that of testosterone
same,Flux across rat skin compared with testosterone,"[1]; certain dosage forms (FIGS. 3, 4, 6, 7, 10, 11 and 12)",more than double that of testosterone
same,Rate of skin penetration compared with T,"[1]; gel of Example 2, 0.5 gm gel (1 mg steroid), 1-4 h, FIG. 1",faster rate than T
same,Steroid flux compared with T,"[1]; gel of Example 2, each time period studied, FIG. 2",greater at each time period studied
same,Flux compared with MENT Ac,"[1]; general statement, no data shown",generally greater than that of MENT Ac
same,Flux compared with testosterone,"[1]; summary statement, depending upon the particular transdermal formulation",as much as twice that of testosterone or more
same,Dose dependence of bioavailability,"[2]; 0.4 vs 0.8 mg MENT, Table 1",dose dependent
same,Permeation through rabbit skin / serum levels,"[2]; gel formulations O, F and T, FIGS. 14 to 19",permeated through rabbit skin and give measurable serum levels
